We go through 33 compounds from US20230303540A1 (Merck Sharp & Dohme LLC, priority 2020, published 2023).

In the test the target is GST-tagged truncated human mutant G2019S LRRK2 (Homo sapiens, UniProt Q5S007, G2019S). Kind of test: LRRK2 G2019S Km ATP LanthaScreen assay. The conditions noted are these: 134 μM ATP (Km ATP), LRRKtide substrate, mean IC50 values; read-out: LRRK2 pIC50 (converted). It counts as biochemical. The method in brief:
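LanthaScreen TR-FRET read with fluorescein-LRRKtide and 134 μM ATP (Km) in Tris pH 8.5/10 mM MgCl2 buffer. The enzyme was preincubated 15 min with compound at room temperature, and the reaction ran 90 min at ambient temperature. Stopped with EDTA plus Tb anti-phospho-LRRKtide antibody; the 520/495 nm ratio gave a 4-parameter logistic IC50, mean of several runs.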
`COCC12CC(n3ncc(Nc4ncc5cc(Cl)c(N6C[C@H]7CC[C@@H](C6)[C@@]7(C)O)cc5n4)c3Cl)(C1)C2` [Ex-3.1, (Endo)-3-(6-chloro-2-((5-chloro-1-(3-(methoxymethyl)bicyclo[1.1.1]pentan-1-yl)-1H-pyrazol-4-yl)amino)quinazolin-7-yl)-8-methyl-3-azabicyclo[3.2.1]octan-8-ol]: the IC50 is 0.093 nM.
As to `O[C@H]1COCC12CCN(c1cc3nc(Nc4cnn(C5CC5)c4Cl)ncc3cc1Cl)CC2` [Ex-3.2], the IC50 was 1.06 nM.
Next, `O[C@@H]1COCC12CCN(c1cc3nc(Nc4cnn(C5CC5)c4Cl)ncc3cc1Cl)CC2` [Ex-3.3]: 17.2 nM; `C[C@]1(O)COCC12CCN(c1cc3nc(Nc4cnn(C5CC5)c4Cl)ncc3cc1Cl)CC2` [Ex-3.4]: 19.9 nM; `C[C@@]1(O)COCC12CCN(c1cc3nc(Nc4cnn(C5CC5)c4Cl)ncc3cc1Cl)CC2` [Ex-3.5]: 1.54 nM.
The same measure for `CC1(O)CCN(c2cc3nc(Nc4cnn([C@H]5CCN(C6COC6)C[C@@H]5F)c4Cl)ncc3cc2Cl)CC1` [Ex-3.6, 1-[6-chloro-2-({5-chloro-1-[(3S,4S)-3-fluoro-1-(oxetan-3-yl)piperidin-4-yl]-1H-pyrazol-4-yl}amino)quinazolin-7-yl]-4-methylpiperidin-4-ol]: 0.625 nM; for `OC1CCN(c2cc3nc(Nc4cnn(C5CC5)c4)ncc3cc2Cl)CC1` [Ex-3.7, 1-{6-chloro-2-[(1-cyclopropyl-1H-pyrazol-4-yl)amino]quinazolin-7-yl} piperidin-4-ol]: 1.44 nM.
Next, `OC1CCN(c2cc3nc(Nc4cnn(C5CC5)c4Cl)ncc3cc2Cl)CC1` [Ex-3.8, 1-{6-chloro-2-[(5-chloro-1-cyclopropyl-1H-pyrazol-4-yl)amino]quinazolin-7-yl}piperidin-4-ol]: 2.53 nM; `CC1(O)CCN(c2cc3nc(Nc4cnn(C5CC5)c4)ncc3cc2Cl)CC1` [Ex-3.9, 1-{6-chloro-2-[(1-cyclopropyl-1H-pyrazol-4-yl)amino]quinazolin-7-yl}-4-methylpiperidin-4-ol]: 5.9 nM; `CC(C)(O)Cn1cc(Nc2ncc3cc(Cl)c(N4CCC(O)CC4)cc3n2)cn1` [Ex-3.10, 1-(6-chloro-2-{[1-(2-hydroxy-2-methylpropyl)-1H-pyrazol-4-yl]amino}quinazolin-7-yl)piperidin-4-ol]: 0.407 nM.
As for `CC(C)(O)Cn1ncc(Nc2ncc3cc(Cl)c(N4CCC(O)CC4)cc3n2)c1Cl` [Ex-3.11, 1-(6-chloro-2-{[5-chloro-1-(2-hydroxy-2-methylpropyl)-1H-pyrazol-4-yl]amino}quinazolin-7-yl)piperidin-4-ol], the IC50 is 0.488 nM.
The same measure for `CC(C)(O)Cn1cc(Nc2ncc3cc(Cl)c(N4CCC(C)(O)CC4)cc3n2)cn1` [Ex-3.12, 1-(6-chloro-2-{[1-(2-hydroxy-2-methylpropyl)-1H-pyrazol-4-yl]amino}quinazolin-7-yl)-4-methyl-piperidin-4-ol]: 0.221 nM.
Next, `CC(C)(O)Cn1ncc(Nc2ncc3cc(Cl)c(N4CCC(C)(O)CC4)cc3n2)c1Cl` [Ex-3.13, 1-(6-chloro-2-{[5-chloro-1-(2-hydroxy-2-methylpropyl)-1H-pyrazol-4-yl]amino}quinazolin-7-yl)-4-methylpiperidin-4-ol]: 1.54 nM; `Cc1c(Nc2ncc3cc(Cl)c(N4CCC(O)CC4)cc3n2)cnn1C1CC1` [Ex-3.14, 1-{6-chloro-2-[(1-cyclopropyl-5-methyl-1H-pyrazol-4-yl)amino]quinazolin-7-yl}piperidin-4-ol]: 0.106 nM; `COCC12CC(n3cc(Nc4ncc5cc(Cl)c(N6CCC7(CC6)COC(CO)C7)cc5n4)cn3)(C1)C2` (stereo not drawn) [Ex-3.15, {8-[6-chloro-2-({1-[3-(methoxymethyl)bicyclo[1.1.1]pentan-1-yl]-1H-pyrazol-4-yl}amino)quinazolin-7-yl]-2-oxa-8-azaspiro [4.5]decan-3-yl}methanol]: 0.227 nM.
The same measure for `COCC12CC(n3cc(Nc4ncc5cc(Cl)c(N(C)C)cc5n4)cn3)(C1)C2` [Ex-3.18, 6-chloro-N-2-{1-[3-(methoxymethyl)bicyclo[1.1.1]pentan-1-yl]-1H-pyrazol-4-yl}-N-7-,N-7-dimethylquinazoline-2,7-diamine]: 1.95 nM; for `CC1(n2ncc(Nc3ncc4cc(Cl)c(N5CCN(CCC#N)CC5)cc4n3)c2Cl)CC1` [Ex-3.20, 3-[4-(6-chloro-2-{[5-chloro-1-(1-methylcyclopropyl)-1H-pyrazol-4-yl]amino}quinazolin-7-yl)piperazin-1-yl]propanenitrile]: 1.07 nM; for `CC1(N2CCN(c3cc4nc(Nc5cnn(C6CC(F)C6)c5Cl)ncc4cc3Cl)CC2)COC1` (stereo not drawn) [Ex-3.21, 6-chloro-N-[5-chloro-1-(3-fluorocyclobutyl)-1H-pyrazol-4-yl]-7-[4-(3-methyloxetan-3-yl)piperazin-1-yl]quinazolin-2-amine]: 4.01 nM.
Regarding `CC1(n2ncc(Nc3ncc4cc(Cl)c(N5CCN(C6COC6)CC5)cc4n3)c2Cl)CC1` [Ex-3.22, 6-chloro-N-[5-chloro-1-(1-methylcyclopropyl)-1H-pyrazol-4-yl]-7-[4-(oxetan-3-yl)piperazin-1-yl]quinazolin-2-amine], the IC50 was 0.954 nM.
On to `CC1(N2CCN(c3cc4nc(Nc5cnn(C6(C(F)(F)F)CC6)c5Cl)ncc4cc3Cl)CC2)COC1` [Ex-3.24, 6-chloro-N-{5-chloro-1-[1-(trifluoromethyl)cyclopropyl]-1H-pyrazol-4-yl}-7-[4-(3-methyloxetan-3-yl)piperazin-1-yl]quinazolin-2-amine], for which the IC50 was 3.68 nM.
For the compound `Clc1cc2cnc(Nc3cnn(C4CC4)c3Cl)nc2cc1N1CCc2[nH]ncc2C1` [Ex-3.25, 6-chloro-N-(5-chloro-1-cyclopropyl-1H-pyrazol-4-yl)-7-(1,4,6,7-tetrahydro-5H-pyrazolo[4,3-c]pyridin-5-yl) quinazolin-2-amine], the IC50 is 1.21 nM.
Next, `CC1(O)CCN(c2cc3nc(Nc4cnn(C5CC5)c4Cl)ncc3cc2Cl)CC1` [Ex-3.26, 1-{6-chloro-2-[(5-chloro-1-cyclopropyl-1H-pyrazol-4-yl)amino]quinazolin-7-yl}-4-methylpiperidin-4-ol]: 5.63 nM; `Cc1c(Nc2ncc3cc(Cl)c(N4C[C@H]5CC[C@@H](C4)[C@@]5(C)O)cc3n2)cnn1C1CC1` [Ex-3.27, (8-syn)-3-{6-chloro-2-[(1-cyclopropyl-5-methyl-1H-pyrazol-4-yl)amino]quinazolin-7-yl}-8-methyl-3-azabicyclo[3.2.1] octan-8-ol]: 0.486 nM.
For the compound `OC1C2CC1CN(c1cc3nc(Nc4cnn(C5CC5)c4)ncc3cc1Cl)C2` (stereo not drawn) [Ex-3.28, 3-{6-chloro-2-[(1-cyclopropyl-1H-pyrazol-4-yl)amino]quinazolin-7-yl}-3-azabicyclo [3.1.1]heptan-6-ol], the IC50 is 4.52 nM.
As to `CN(C)c1cc2nc(Nc3cnn(C4CC4)c3)ncc2cc1Cl` [Ex-3.29, 6-chloro-N-2-(1-cyclopropyl-1H-pyrazol-4-yl)-N-7-,N-7-dimethylquinazoline-2,7-diamine], the IC50 was 8.79 nM.
Consider `CC(C)(O)Cn1ncc(Nc2ncc3cc(Cl)c(N4C[C@H]5CC[C@@H](C4)[C@@]5(C)O)cc3n2)c1Cl` [Ex-3.30, (8-syn)-3-(6-chloro-2-{[5-chloro-1-(2-hydroxy-2-methylpropyl)-1H-pyrazol-4-yl]amino}quinazolin-7-yl)-8-methyl-3-azabicyclo[3.2.1] octan-8-ol], for which the IC50 was 5.09 nM.
Next, `COCC12CC(n3cc(Nc4ncc5cc(Cl)c(N6C[C@H]7CC[C@@H](C6)[C@@]7(C)O)cc5n4)cn3)(C1)C2` [Ex-3.31, (8-syn)-3-[6-chloro-2-({1-[3-(methoxymethyl)bicyclo[1.1.1]pentan-1-yl]-1H-pyrazol-4-yl}amino)quinazolin-7-yl]-8-methyl-3-azabicyclo[3.2.1]octan-8-ol]: 2.08 nM; `CC(C)(O)Cn1cc(Nc2ncc3cc(Cl)c(N4C[C@H]5CC[C@@H](C4)[C@@]5(C)O)cc3n2)cn1` [Ex-3.32, (8-syn)-3-(6-chloro-2-{[1-(2-hydroxy-2-methylpropyl)-1H-pyrazol-4-yl]amino}quinazolin-7-yl)-8-methyl-3-azabicyclo[3.2.1]octan-8-ol]: 0.393 nM; `COCC12CC(n3cc(Nc4ncc5cc(Cl)c(N6CCC7(CCOC7)CC6)cc5n4)cn3)(C1)C2` [Ex-3.33, 6-chloro-N-{1-[3-(methoxymethyl)bicyclo[1.1.1]pentan-1-yl]-1H-pyrazol-4-yl}-7-(2-oxa-8-azaspiro [4.5]decan-8-yl)quinazolin-2-amine]: 1.15 nM.
For `COCC12CC(n3cc(Nc4ncc5cc(Cl)c(N6CCC7(CCCO7)CC6)cc5n4)cn3)(C1)C2` [Ex-3.34, 6-chloro-N-{1-[3-(methoxymethyl)bicyclo[1.1.1]pentan-1-yl]-1H-pyrazol-4-yl}-7-(1-oxa-8-azaspiro [4.5]decan-8-yl)quinazolin-2-amine], the IC50 was 0.594 nM.
Next, `O=C1COCC12CCN(c1cc3nc(Nc4cnn(C5CC5)c4Cl)ncc3cc1Cl)CC2` [Ex-3.36, 8-{6-chloro-2-[(5-chloro-1-cyclopropyl-1H-pyrazol-4-yl)amino]quinazolin-7-yl}-2-oxa-8-azaspiro[4.5]decan-4-one]: 3.02 nM; `C[C@]1(O)[C@@H]2CC[C@H]1CN(c1cc3nc(Nc4cnn(C56CC(C5)C6)c4Cl)ncc3cc1Cl)C2` [Ex-3.38, (8-syn)-3-(2-{[1-(bicyclo[1.1.1]pentan-1-yl)-5-chloro-1H-pyrazol-4-yl]amino}-6-chloroquinazolin-7-yl)-8-methyl-3-azabicyclo[3.2.1]octan-8-ol]: 6.62 nM.
The same measure for `Clc1cc2cnc(Nc3cnn(C45CC(C4)C5)c3Cl)nc2cc1N1CCC2(CCOC2)CC1` [Ex-3.39, N-[1-(bicyclo[1.1.1]pentan-1-yl)-5-chloro-1H-pyrazol-4-yl]-6-chloro-7-(2-oxa-8-azaspiro[4.5]decan-8-yl) quinazolin-2-amine]: 3.23 nM.
